We go through three molecules from paper PMC8682774 (2021).

Experiment [1] relates to NRAS (RNA, G4) GGGAGGGGCGGGUCUGGG
In words: G4-FID. As to conditions: 100 mM KCl, 10 mM lithium cacodylate pH 7.3, thiazole orange 0.5 µM displaced.

Experiment [2] concerns 21CTA (DNA, G4) GGGCTAGGGCTAGGGCTAGGG
Description: G4-FID. To be noted: 100 mM KCl, 10 mM lithium cacodylate pH 7.3, thiazole orange 0.5 µM displaced.

For experiment [3], the system named is 22AG (DNA, G4) AGGGTTAGGGTTAGGGTTAGGG
Description: G4-FID. To be noted: 100 mM KCl, 10 mM lithium cacodylate pH 7.3, thiazole orange 0.5 µM displaced.

Experiment [4] concerns CEB25wt (DNA, G4) AAGGGTGGGTGTAAGTGTGGGTGGGT
Description: G4-FID. To be noted: 100 mM KCl, 10 mM lithium cacodylate pH 7.3, thiazole orange 0.5 µM displaced.

Experiment [5] concerns c-Myc22 (G14T-G23T) (DNA, G4) TGAGGGTGGGTAGGGTGGGTAA
In words: G4-FID. To be noted: 100 mM KCl, 10 mM lithium cacodylate pH 7.3, thiazole orange 0.5 µM displaced.

The subject of experiment [6] is cKit2 (DNA, G4) GGGCGGGCGCGAGGGAGGGG
In words: G4-FID. As to conditions: 100 mM KCl, 10 mM lithium cacodylate pH 7.3, thiazole orange 0.5 µM displaced.

The test system of experiment [7] is F21T (DNA, G4) GGGTTAGGGTTAGGGTTAGGG
In words: FRET melting. As to conditions: 10 mM KCl, 90 mM LiCl; 10 mM lithium cacodylate pH 7.2; 0.2 µM G4; 1 µM ligand; no competitor.

Experiment [8] has as its system CEB25L111T (DNA, G4) AAGGGTGGGTGGGTGGGT
In words: G4-FID. As to conditions: 100 mM KCl, 10 mM lithium cacodylate pH 7.3, thiazole orange 0.5 µM displaced.

For experiment [9], the system named is TERRA (RNA, G4) AGGGUUAGGGUUAGGGUUAGGG
In words: G4-FID. As to conditions: 100 mM KCl, 10 mM lithium cacodylate pH 7.3, thiazole orange 0.5 µM displaced.

Experiment [10] deals with Biot-TERRA (RNA, G4) UUAGGGUUAGGGUUAGGGUUAGGG
Description: adapted ELISA, anti-BrdU antibody. To be noted: 100 mM KCl; 10 mM Tris-HCl pH 7.4; 250 nM ligand, oligonucleotide varied; apparent. (In an ELISA, binding on a coated surface is turned into a signal by an enzyme label.)

Experiment [11] concerns Biot-cMyc (DNA, G4) TGAGGGTGGGTAGGGTGGGTAA
Description: adapted ELISA, anti-BrdU antibody. As to conditions: 100 mM KCl; 10 mM Tris-HCl pH 7.4; 250 nM ligand, oligonucleotide varied; apparent.

The subject of experiment [12] is Biot-hTelo (DNA, G4) GGTTAGGGTTAGGGTTAGGGTTAGGGTTAGG
Description: adapted ELISA, anti-BrdU antibody. To be noted: 100 mM KCl; 10 mM Tris-HCl pH 7.4; 250 nM ligand, oligonucleotide varied; apparent.

As for `C#CCCCC(=O)NCCCCNc1cc(C(=O)Nc2cc3ccccc3[n+](C)c2)nc(C(=O)Nc2cc3ccccc3[n+](C)c2)c1`, the DC50 in [1] (0.25 µM G4) turned out to be 0.21 µM; in experiment [2] (0.25 µM G4) it was 300 nM; in experiment [3] (0.25 µM G4), 370 nM; in experiment [4] (0.25 µM G4) it was 400 nM; in experiment [5] (0.25 µM G4), 310 nM; in experiment [6] (0.25 µM G4), 200 nM. In addition, the DC50 in [8] (0.25 µM G4) stood at 230 nM; in experiment [9] (0.25 µM G4) it was 0.31 µM. The binding entry in experiment [7] is “yes”.

On to `C[n+]1cc(NC(=O)c2cc(NCCCCNC(=O)CCCc3cn(CO[C@H]4C[C@H](n5cc(Br)c(=O)[nH]c5=O)O[C@@H]4CO)nn3)cc(C(=O)Nc3cc4ccccc4[n+](C)c3)n2)cc2ccccc21`, for which the figures for the Kd in [10], in [11] and in experiment [12] were 29.6 ± 7.8 nM, 3.5 ± 0.9 nM and 9.6 ± 1.3 nM, respectively. Moreover, the DC50 in [1] (0.25 µM G4) worked out at 0.32 µM; in [2] (0.25 µM G4), 1100 nM; in experiment [3] (0.25 µM G4) it was 800 nM; in [4] (0.25 µM G4), 760 nM; in experiment [5] (0.25 µM G4), 520 nM; in experiment [6] (0.25 µM G4) it was 380 nM. The values for the DC50 in experiment [8] (0.25 µM G4) and in experiment [9] (0.25 µM G4) were 480 nM and 0.42 µM, respectively.

On to `C[n+]1cc(NC(=O)c2cccc(C(=O)Nc3cc4ccccc4[n+](C)c3)n2)cc2ccccc21`, for which the DC50 in experiment [1] (0.25 µM RNA, decimal comma) is 0,20 µM; in experiment [2] (0.25 µM DNA), 180 nM; in experiment [3] (0.25 µM DNA), 340 nM; in experiment [4] (0.25 µM DNA), 290 nM; in experiment [5] (0.25 µM DNA), 150 nM; in experiment [6] (0.25 µM DNA), 180 nM. Moreover, the DC50 in experiment [8] (0.25 µM DNA) is 260 nM; in experiment [9] (0.25 µM RNA, decimal comma), 0,25 µM.
